Measured values: publication PMC4129416, “YLT192, a Novel, Orally Active Bioavailable Inhibitor of VEGFR2 Signaling with Potent Antiangiogenic Activity and Antitumor Efficacy in Preclinical Models” (Scientific Reports, 2014)

Experiments:
[1] = test system: HCT116 tumors; experiment: Subcutaneous xenograft model; format: in vivo; conditions: 100 mg/kg oral once daily; HCT116 xenograft in nude mice; vs vehicle
Method: (§1) Figure 5 Anti-tumor activities of YLT192 in vivo. (A) U251 and HCT116 tumor-bearing mice were treated orally with YLT192 at 25, 50 and 100 mg/kg or vehicle daily, respectively. […] (B) Body weight changes in YLT192 and vehicle treated mice. […] For A and B, data are means ± SD. (C) and (D), YLT192 inhibited tumor cell proliferation in HCT116 tumor tissues in vivo. Mice bearing HCT116 tumor xenograft were treated with YLT192 at 50 and 100 mg/kg or vehicle and sacrificed at the end of the experiment. The tumor tissues were removed for further immunohistochemistry analysis using anti-Ki67 (C) and anti-p-p44/42 MAPK antibodies (D). (E) YLT192 induced tumor cell apoptosis in HCT116 tumor in vivo. Apoptosis was measured by TUNEL staining (n = 6 mice per group). Scale bars represent 100 μm.
(§2) All animal experiments were approved and conducted by the Institutional Animal Care and Treatment Committee of Sichuan University in China (Permit Number: 20121205). […] Tumor growth and body weight was measured every three days during the treatment. Tumor volumes were calculated using the formula as follow: volume (mm^3) = 0.5 × length (mm) × width (mm)^2. Growth inhibition was calculated from the start of treatment by comparison of the mean change in tumor volume for vehicle and treated group as before.

[2] = test system: U251 tumors; experiment: Subcutaneous xenograft model; format: in vivo; conditions: 100 mg/kg oral once daily; U251 xenograft in nude mice; vs vehicle
Method: as §1, §2

[3] = test system: HUVEC; experiment: VEGF165-stimulated HUVEC growth, MTT assay; format: cell-based; conditions: Homo sapiens, induced by VEGF165 (50 ng/mL), read-out: IC50, HUVEC proliferation
Text: The inhibition effect of YLT192 on VEGF165-stimulated HUVEC growth was examined using MTT assay.

[4] = test system: U251 cells; experiment: EdU incorporation assay; format: cell-based, human; conditions: 24 h treatment, concentration-dependent
Method: (§3) The proliferative inhibitory ability of YLT192 on tumor cells was investigated. […] Inhibition of cell proliferation is a possible approach for cancer treatment. EdU incorporation assay was performed to investigate the anti-proliferative effects of YLT192 against U251 and HCT116 cells.
(§4) Figure 4 Inhibitory effects of YLT192 on tumor cells. (A) YLT192 inhibited U251 and HCT116 cells proliferation. The EdU incorporation assay was conducted on U251 and HCT116 cells after treated with YLT192 for 24 hours. The EdU-positive (red fluorescent staining) cells and Hoechst staining (blue fluorescent staining) cells represented proliferating and total cells in the fluorescent images, respectively (100×). Quantification was shown on the right panels. (B) YLT192 induced apoptosis of HCT116 cells. HCT116 cells were treated with YLT192 or vehicle for 48 hours followed by flow cytometric analysis of annexin V-FITC and PI staining. The proportion of early apoptotic cells (annexin V positive) and late apoptotic cells (annexin V and PI positive cells) were shown. Typical apoptosis-related proteins caspase 3 and Bax were detected by western blot. Each has the expression of β-actin as internal control. […] U251 and HCT116 cells were treated with YLT192 or vehicle for 48 hours and the expression of protein in different signaling pathways were detected by western blot with specific antibodies. […]

[5] = test system: HCT116 cells; experiment: EdU incorporation assay; format: cell-based, human; conditions: 24 h treatment, concentration-dependent
Method: as §3, §4

[6] = test system: HCT116 tumor xenografts; experiment: Immunohistochemistry of HCT116 xenograft tumor sections (CD31, Ki67, p-p44/42 MAPK, TUNEL); format: in vivo, mice
Method: To better understand the mechanism of antitumor activities in vivo, immunohistochemistry was performed using tumor tissues isolated from HCT116 at the end of the treatment. […] Furthermore, we investigated the activity of YLT192 on apoptosis in HCT116 xenograft tumors by terminal deoxynucleotidyl transferase (dUTP) nick end labeling (TUNEL) staining.
Tumour tissues obtained from the mice bearing HCT116 tumors were subjected to immunohistological analysis. Briefly, at the end of the treatment, mice were killed and tumor tissues were obtained. Then CD31 staining was conducted using frozen sections of tissue embedded in optimum cutting temperature[49] and immunohistological detection of anti-Ki67 and p-p44/42 MAPK were performed according to the manufacture's instructions using paraffin-embedded sections of tumor[50]. Apoptotic cells in the tumor tissue were detected by terminal deoxynucleotidyl transferase-mediated dUTP nick end-labeling (TUNEL) staining using an apoptotic cell detection kit (Merck Millipore).

**Q.** For `CNC(=O)c1cc(Oc2ccc(NC(=O)c3cccc(OC)c3)cc2)ccn1` [YLT192], which tumor volume inhibition [1] is on record?
**A.** 61%

**Q.** And the tumor volume inhibition [2]?
**A.** 60%

**Q.** And the IC50 [3]?
**A.** 2300 nM

**Q.** What about the “percentage of proliferating cells, EdU incorporation” value [4] of the same molecule?
**A.** decreased a lot

**Q.** And the “percentage of proliferating cells, EdU incorporation” value [5]?
**A.** decreased a lot

**Q.** And the “apoptotic cells in the tumor tissues, TUNEL staining” value ([6]; 100 mg/kg)?
**A.** increased apoptotic cells

**Q.** And the “phosphorylation of p44/42 MAPK (p-ERK) in tumor tissues” value ([6]; 100 mg/kg)?
**A.** significant decrease

**Q.** And the “reduction of microvessel density (MVD)” value ([6]; 100 mg/kg oral daily, anti-CD31, vs vehicle)?
**A.** 69%

**Q.** What about the “Ki67 staining in tumor tissues” value ([6]; 50 and 100 mg/kg, end of treatment) of the same molecule?
**A.** significant reduction
